According to ChEMBL document CHEMBL5308541, “MAIP: An Open-Source Tool to Enrich High-Throughput Screening Output and Identify Novel, Druglike Molecules with Antimalarial Activity” (ACS Med Chem Lett, 2023):
Where “and” joins values, the source holds several entries; their conditions need not be identical. Identical values can stand only once.

Tests used:
Plasmodium falciparum [1] = assay: Hit confirmation in dose-response curve in NF54 nanoGlo assay, at 72h; format: functional, organism-based, Erythrocyte; design: timepoint 72 hour
Plasmodium falciparum [2] = assay: Hit confirmation in dose-response curve in NF54 pLDH assay, at 72h; format: functional, organism-based, Erythrocyte; design: timepoint 72 hour
Plasmodium falciparum [3] = assay: Hit confirmation in dose-response curve in Dd2 pLDH assay, at 72h; format: functional, organism-based, Erythrocyte; design: timepoint 72 hour
Plasmodium falciparum [4] = assay: Hit confirmation in dose-response curve in NF54 nanoGlo assay, at 12h; format: functional, organism-based, Erythrocyte; design: timepoint 12 hour
[5] = (§1) Hit confirmation in dose-response curve in HepG2 cytotoxicity assay, at 72h; format: toxicity, cell-based, Homo sapiens; design: timepoint 72 hour; conditions: human, HepG2 cells
Plasmodium falciparum [6] = assay: Re-testing in dose-response curve in 3D7 pLDH assay, at 72h; format: functional, organism-based, Erythrocyte; design: timepoint 72 hour
[7] = (§2) Re-testing in dose-response curve in HepG2 cytotoxicity assay, at 72h; format: toxicity, cell-based, Homo sapiens; design: timepoint 72 hour; conditions: human, HepG2 cells
HepG2 [8] = assay: as §2; format: toxicity, cell-based, Homo sapiens; design: timepoint 72 hour; conditions: hepg2
HepG2 [9] = assay: as §1; format: toxicity, cell-based, Homo sapiens; design: timepoint 72 hour; conditions: hepg2
Plasmodium falciparum [10] = assay: Re-testing in dose-response curve in Dd2 pLDH assay, at 72h; format: functional, organism-based, Erythrocyte; design: timepoint 72 hour
[11] = Plasmodium falciparum, NF54, Erythrocyte, 72 h
[12] = Plasmodium falciparum, Dd2, Erythrocyte, 72 h
[13] = Plasmodium falciparum, NF54, Erythrocyte, 12 h
[14] = Plasmodium falciparum, 3D7, Erythrocyte, 72 h

| SMILES | IC50 (Plasmodium falciparum [1]; [11]) [nM] | IC50 (Plasmodium falciparum [2]; [11]) [nM] | IC50 (Plasmodium falciparum [3]; [12]) [nM] | IC50 (Plasmodium falciparum [4]; [13]) [nM] | IC50 (Plasmodium falciparum [6]; [14]) [nM] | IC50 (Plasmodium falciparum [6]; erythrocyte) | IC50 (Plasmodium falciparum [1]; erythrocyte) [nM] | IC50 (Plasmodium falciparum [2]; erythrocyte) [nM] | IC50 (Plasmodium falciparum [3]; erythrocyte) [nM] | IC50 (Plasmodium falciparum [4]; erythrocyte) [nM] | IC50 (Plasmodium falciparum [10]; [12]) [nM] | IC50 (Plasmodium falciparum [10]; erythrocyte) | IC50 at 72 h [5] [nM] | IC50 at 72 h [7] [nM] | IC50 (HepG2 [8]) [nM] | IC50 (HepG2 [9]) [nM] |
| --- | --- | --- | --- | --- | --- | --- | --- | --- | --- | --- | --- | --- | --- | --- | --- | --- |
| Brc1ccc2[nH]c3c(c2c1)CCCC3NC1CCc2[nH]cnc2C1 (centres undefined) | 1350 | 2340 | 1700 | 1740 | ~3040 | 3400 nM | – | – | – | – | – | – | > 10000 | 4100 | 4230 | – |
| Cc1ccc(-c2cccc3c(C(=O)NCCCN4CCC(N5CCCCC5)CC4)cc(C)nc23)cc1 | 1200 | 1200 | 1170 | 1410 | 478 | ~748 nM | – | – | – | – | – | – | 5010 | 4110 | 3450 | – |
| Cc1cnccc1NCCNCc1ccc(OC(C)C)c(Cl)c1 | 1050 | 1550 | 977 | 9550 | 434 | 501 nM | – | – | – | – | – | – | > 10000 | 6650 | 6940 | – |
| c1ccc(CNc2ccc(-c3noc(C45CCCN(CCC4)C5)n3)cn2)cc1 | 2090 | 2630 | 1990 | 3240 | ~9410 | 9780 nM | – | – | – | – | – | – | > 10000 | 20400 | 20100 | – |
| CN1CCC(Oc2ccc(NC(=O)c3cn4ccnc4s3)cn2)CC1 | 1290 | 1580 | 933 | 6920 | 2130 | 2340 nM and 1390 nM | – | – | – | – | – | – | > 10000 | > 25000 | 18700 | – |
| CC(C)c1ccc(-c2nc(CN3CCCCC3)cc(CN3CCCCC3)c2O)cc1 | – | – | – | – | – | – | 1780 | 2690 | 1580 | 3980 | 949 | 923 nM | – | – | > 25000 | > 10000 |
| O=C(n1nnc2cc(Cl)c(Cl)cc21)C(F)(F)F | > 10000 | 4900 | 955 | > 10000 | 254 | 291 nM | – | – | – | – | 1050 | 937 nM | > 10000 | 21000 | 24800 | – |
| c1ccc2c(CNCCC3CCN(c4ccncc4)CC3)csc2c1 | 1860 | 1820 | 1450 | 7410 | 449 | 418 nM | – | – | – | – | – | – | 12300 | 4250 | 5070 | – |
| CCOc1cc(C(=O)NC2CCN(CC3CCCC3)CC2)cc(-c2ccccc2)c1OC | 1480 | 3890 | 1580 | 3720 | – | 593 nM [middle of 6 runs] | – | – | – | – | 11500 | 10700 nM and 8370 nM and 8120 nM | > 10000 | 10000 | 10300 | – |
| Fc1ccc(-n2cc(CNCCC3CCN(c4ccncc4)CC3)cn2)cc1 | 1580 | 1740 | 1290 | 3550 | 391 | ~385 nM | – | – | – | – | – | – | > 10000 | 5110 | 5840 | – |
| CCCc1cccc(CNC2CCN(C3CCN(C)CC3)CC2)c1 | 1820 | 1550 | 1380 | 4790 | – | 620 nM [middle of 4 runs] | – | – | – | – | 1370 | 1410 nM | > 10000 | 11000 | 7920 | – |

The remaining compounds from weak to strong by IC50 (Plasmodium falciparum [1]; [11]), led by results:

| IC50 (Plasmodium falciparum [1]; [11]) [nM] | IC50 (Plasmodium falciparum [2]; [11]) [nM] | IC50 (Plasmodium falciparum [3]; [12]) [nM] | IC50 (Plasmodium falciparum [4]; [13]) [nM] | IC50 (Plasmodium falciparum [6]; [14]) [nM] | IC50 (Plasmodium falciparum [6]; erythrocyte) | IC50 (Plasmodium falciparum [1]; erythrocyte) [nM] | IC50 (Plasmodium falciparum [2]; erythrocyte) [nM] | IC50 (Plasmodium falciparum [3]; erythrocyte) [nM] | IC50 (Plasmodium falciparum [4]; erythrocyte) [nM] | IC50 (Plasmodium falciparum [10]; [12]) [nM] | IC50 (Plasmodium falciparum [10]; erythrocyte) | SMILES | IC50 at 72 h [5] [nM] | IC50 at 72 h [7] [nM] | IC50 (HepG2 [8]) [nM] | IC50 (HepG2 [9]) [nM] |
| --- | --- | --- | --- | --- | --- | --- | --- | --- | --- | --- | --- | --- | --- | --- | --- | --- |
| 1020 | 724 | 1660 | > 10000 | 460 | 360 nM | – | – | – | – | 1740 | 1760 nM | CN(C)C1(CNc2nc(C(F)(F)F)nc3cc(F)ccc23)CCCCCC1 | > 10000 | 8910 | 9280 | – |
| 955 | 1380 | 955 | 1550 | 621 | 597 nM | – | – | – | – | 1190 | 1230 nM | Cc1ccc(-c2cc(C(=O)NC3CCN(C4CCN(C)CC4)CC3)n[nH]2)cc1C | 7760 | 5930 | 7030 | – |
| 933 | 1000 | 741 | 1290 | > 25000 | – | – | – | – | – | – | – | CCN1C[C@H](Nc2nc(C)nc3sccc23)[C@@H](OC)C1 | > 10000 | > 25000 | – | – |
| 759 | 1480 | 871 | > 10000 | 82.9 | 90.8 nM | – | – | – | – | – | – | COc1ccc2c(O)c(Br)c(C)nc2c1 | > 10000 | 21600 | 21900 | – |
| 724 | 891 | 692 | 1700 | – | 633 nM [middle of 4 runs] | – | – | – | – | 1380 | – | C[C@@H](CNC1CCN(C2CCN(C)CC2)CC1)c1cccc(Cl)c1 | > 10000 | 9550 | 8180 | – |
